A value given as a limit tells only on which side of the number the result lay.

Four molecules from patent US8168592B2 (Amgen Inc., priority 2005, dated 2012) can be followed below.

The nature of data set [1]: in vitro stability in 10% rat plasma, LC-MS/MS. In kind it is in vitro ADME. To be noted: room temperature. How it is done: (§1) Consequently, the stability of select, non-PEGylated analogs was evaluated in vitro in the presence of 10% rat or human plasma. Briefly, samples of each peptide were diluted to 100 ng/ml into PBS containing 10% of rat or human plasma. Each sample was then incubated at room temperature and analyzed by LC-MS/MS to quantitate the intact peptide remaining at select time points over 6 hours.

The nature of data set [2]: in vitro stability in 10% human plasma, LC-MS/MS. In kind it is in vitro ADME. The note with it: room temperature. How it is done:
as §1

For a further data set, the target named is T1, CGRP1 receptor (Homo sapiens, UniProt O60894+Q16602).
T1 construct: SK-N-MC cells express CRLR and RAMP1, which form CGRP1 receptor; endogenous in cells; host or cells: SK-N-MC human neuroblastoma cells
As to the kind of experiment: in vitro CGRP1 receptor mediated cAMP assay in SK-N-MC cells. It is filed as cell-based. The note with it: Table 3; unconjugated CGRP peptide analogs; n = 2-4; read-out: IC50. A digest of the protocol: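 Intracellular cAMP served as the Gs-coupled CGRP1 readout in endogenously expressing SK-N-MC cells. After a 15-minute room-temperature step in plasma-free medium, cell lysates (30 minutes, 37° C) went into a competitive ELISA with a cAMP-AP conjugate and anti-cAMP antibody for 1 hour, then a 30-minute substrate enhancer step before reading.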
A general note: Changes in cAMP serve as a functional read-out for many G protein-coupled receptors.

Where [3] appears, read: read-out: time at which 50% depleted.
Where [4] appears, read: read-out: time at which 50% depleted / detectable.
The mark [5] stands for this setting: read-out: time at which 50% remains (converted).

T1 sequence (Q16602 23-461): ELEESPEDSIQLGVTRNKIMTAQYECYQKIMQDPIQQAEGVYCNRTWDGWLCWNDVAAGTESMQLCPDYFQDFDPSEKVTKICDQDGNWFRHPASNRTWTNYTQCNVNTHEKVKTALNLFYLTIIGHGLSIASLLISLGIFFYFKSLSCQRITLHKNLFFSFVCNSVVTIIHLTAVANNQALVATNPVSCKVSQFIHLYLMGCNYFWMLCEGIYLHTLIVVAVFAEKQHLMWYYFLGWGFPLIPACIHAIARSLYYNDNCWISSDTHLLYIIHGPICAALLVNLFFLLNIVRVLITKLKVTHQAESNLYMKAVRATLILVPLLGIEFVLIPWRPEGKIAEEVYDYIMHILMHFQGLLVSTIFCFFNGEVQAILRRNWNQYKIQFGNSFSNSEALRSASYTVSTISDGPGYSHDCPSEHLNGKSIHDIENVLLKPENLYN
T1 sequence (O60894 27-148): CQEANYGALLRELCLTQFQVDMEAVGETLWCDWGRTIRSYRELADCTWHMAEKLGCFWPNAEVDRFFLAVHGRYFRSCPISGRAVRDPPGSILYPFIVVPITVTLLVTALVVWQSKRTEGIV

`CC(=O)N[C@@H](Cc1c[nH]c2ccccc12)C(=O)N[C@H](C(=O)N[C@H](C(=O)N[C@@H](Cc1cnc[nH]1)C(=O)N[C@@H](CCCN=C(N)N)C(=O)N[C@@H](CC(C)C)C(=O)N[C@@H](C)C(=O)NCC(=O)N[C@@H](CC(C)C)C(=O)N[C@@H](CC(C)C)C(=O)N[C@@H](CO)C(=O)N[C@@H](CCCN=C(N)N)C(=O)N[C@@H](CO)C(=O)NCC(=O)NCC(=O)N[C@H](C(=O)N[C@H](C(=O)N[C@@H](CCCN=C(N)N)C(=O)N[C@@H](CCCCN)C(=O)N[C@@H](CC(N)=O)C(=O)N[C@@H](Cc1ccccc1)C(=O)N[C@H](C(=O)N1CCC[C@H]1C(=O)N[C@H](C(=O)N[C@@H](CC(=O)O)C(=O)N[C@H](C(=O)NCC(=O)N1CCC[C@H]1C(=O)N[C@@H](Cc1ccccc1)C(=O)N[C@@H](C)C(=O)N[C@@H](Cc1ccccc1)C(N)=O)C(C)C)[C@@H](C)O)C(C)C)C(C)C)C(C)C)[C@@H](C)O)C(C)C` [SEQ ID NO:7]: the “time at which about 10% of the starting concentration remains” value is roughly 2.5 h in data set [1] and “about 1 hours” in data set [2]. Besides, the half-life at 100 ng/ml in data set [1] (setting [3]) is roughly 45 min; in data set [2] (setting [4]), less than 30 min.
In the case of `CC(=O)N[C@@H](Cc1c[nH]c2ccccc12)C(=O)N[C@H](C(=O)N[C@H](C(=O)N[C@@H](Cc1cnc[nH]1)C(=O)N[C@@H](CCCN=C(N)N)C(=O)N[C@@H](CC(C)C)C(=O)N[C@@H](C)C(=O)NCC(=O)N[C@@H](CC(C)C)C(=O)N[C@@H](CC(C)C)C(=O)N[C@@H](CO)C(=O)N[C@@H](CCCN=C(N)N)C(=O)N[C@@H](CO)C(=O)NCC(=O)NCC(=O)N[C@H](C(=O)N[C@H](C(=O)N[C@@H](CCCN=C(N)N)C(=O)N[C@@H](CCCCN)C(=O)N[C@@H](CC(N)=O)C(=O)N[C@@H](Cc1ccccc1)C(=O)N[C@H](C(=O)N1CCC[C@H]1C(=O)N[C@H](C(=O)N[C@@H](CC(=O)O)C(=O)N[C@H](C(=O)NCC(=O)N1CCC[C@H]1C(=O)N[C@@H](Cc1ccccc1)C(=O)N[C@@H](C)C(=O)N[C@@H](Cc1ccccc1)C(N)=O)C(C)C)[C@@H](C)O)C(C)C)C(C)C)C(C)C)[C@@H](C)O)C(C)C` [compound 7], the IC50 (commonly the concentration that inhibits the measured activity by half) at CGRP1 receptor worked out at 0.13 nM. The “% Remaining” value in data set [1] (100 ng/ml, 0 h) is given as 100.0%. Further, the share remaining (usually the share of the starting amount still present when the sample was taken) at 0.5 h, 100 ng/ml in data set [1] (100 ng/ml, 0.5 h) stood at 55.4%. Further, the share remaining at 1 h, 100 ng/ml in data set [1] (100 ng/ml, 1 h) was found to be 34.5%. This molecule yielded a fraction remaining at 2 h, 100 ng/ml in data set [1] (100 ng/ml, 2 h) of 8%. Besides, the fraction remaining at 3 h, 100 ng/ml in data set [1] (100 ng/ml, 3 h) worked out at 5.2%. In addition, the amount remaining at 4 h, 100 ng/ml in data set [1] (100 ng/ml, 4 h) is 1.4%. In data set [1] (100 ng/ml, 5 h), the share remaining at 5 h, 100 ng/ml turned out to be 1.7%. In addition, the share remaining at 6 h, 100 ng/ml in data set [1] (100 ng/ml, 6 h) came out at 0.6%.
Regarding “Ac-WVTHQLAGLLSQSGGVVRKNFVPTDVGPFAF-NH2 [SEQ ID NO:39]”, the entries for the “time at which about 10% of the starting concentration remains” value in data set [1] and in data set [2] were “about 5 hours” and “about 4 hours”, respectively. For the same molecule, the values for the half-life at 100 ng/ml in data set [1] (setting [5]) and in data set [2] (setting [5]) were roughly 90 min and roughly 60 min, respectively.
“Ac-WVTHRLAGLLSQSGGVVRKNFVPTDVGPFAF-NH2 [SEQ ID NO:37]”: the “time at which about 10% of the starting concentration remains” value was roughly 2.5 h in data set [1] and “about 1 hours” in data set [2]. Besides, the values for the half-life at 100 ng/ml in data set [1] (setting [3]) and in data set [2] (setting [4]) were roughly 45 min and less than 30 min, respectively.
